Measured values as given in patent publication US9302999B2, “Substituted triazoles as herbicides” (E. I. DU PONT DE NEMOURS AND COMPANY, priority 2012, dated 2016).
Like-named read-outs stand apart in the source and are kept apart here.

What was measured:
Format in all cases: in vivo
[1] = test system: wheat (Triticum aestivum); test: Test A pre-/postemergence: wheat; settings: Triticum aestivum, 240 h; for plant injury at 125 g/ha: 125 g ai/ha; for plant injury at 500 g/ha: 500 g ai/ha
In short: (§1)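 Rating scale 0–100 (100 = complete control), visual, ~10 days after application in the greenhouse. Applications: preemergence directed soil spray; postemergence at 1–2 leaves.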

[2] = test system: ryegrass, Italian (Italian ryegrass, Lolium multiflorum); test: Test C pre-/postemergence: ryegrass, Italian
In short: (§2)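 Visual injury scored 0–100 (100 = complete control) against untreated controls after 13–15 greenhouse days. Surfactant-containing solvent formulations applied either to soil after sowing (loam/sand) or over 1- to 4-leaf plants, 2–18 cm tall.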

[3] = test system: pigweed (Amaranthus retroflexus); test: Test C pre-/postemergence: pigweed
In short: as §2

[4] = test system: ragweed (common ragweed, Ambrosia elation); test: Test C pre-/postemergence: ragweed
In short: as §2

[5] = test system: johnsongrass (Sorghum halepense); test: Test C pre-/postemergence: johnsongrass
In short: as §2

[6] = test system: morningglory (Ipomoea spp.); test: Test A pre-/postemergence: morningglory; settings: Ipomoea, 240 h; for pest or weed control at 125 g/ha: 125 g ai/ha; for pest or weed control at 500 g/ha: 500 g ai/ha
In short: as §1

[7] = test system: foxtail, giant (giant foxtail, Setaria faberii); test: Test C pre-/postemergence: foxtail, giant
In short: as §2

[8] = test system: galium (catchweed bedstraw, Galium aparine); test: Test C pre-/postemergence: galium
In short: as §2

[9] = test system: large crabgrass (Digitaria sanguinalis); test: Test C pre-/postemergence: large crabgrass
In short: as §2

corn (Zea mays) = test: Test A pre-/postemergence: corn; settings: Zea mays, 240 h
In short: as §1

[10] = test system: velvetleaf (Abutilon theophrasti); test: Test C pre-/postemergence: velvetleaf
In short: as §2

kochia (Kochia scoparia) = test: Test C pre-/postemergence: kochia
From the text: Seeds of plant species selected from blackgrass (Alopecurus myosuroides), bromegrass, downy (downy bromegrass, Bromus tectorum), foxtail, green (green foxtail, Setaria viridis), ryegrass, Italian (Italian ryegrass, Lolium multiflorum), winter wheat (Triticum aestivum), wild oat (Avena fatua), galium (catchweed bedstraw, Galium aparine), bermudagrass (Cynodon dactylon), surinam grass (Brachiaria decumbens), cocklebur (common cocklebur, Xanthium strumarium), corn (Zea mays), large crabgrass (Digitaria sanguinalis), woolly cupgrass (Eriochloa villosa), foxtail, giant (giant foxtail, Setaria faberii), goosegrass (Eleusine indica), johnsongrass (Sorghum halepense), kochia (Kochia scoparia), lambsquarters (Chenopodium album), morningglory (Ipomoea coccinea), nightshade (eastern black nightshade, Solanum ptycanthum), nutsedge, yellow (yellow nutsedge, Cyperus esculentus), pigweed (Amaranthus retroflexus), ragweed (common ragweed, Ambrosia elation), soybean (Glycine max), common (oilseed) sunflower (Helianthus annuus), Russian thistle (Salsola kali) and velvetleaf (Abutilon theophrasti) were planted into a blend of loam soil and sand and treated preemergence with test chemicals formulated in a non-phytotoxic solvent mixture which included a surfactant.
At the same time, plants selected from these crop and weed species and also barley (winter barley, Hordeum vulgare), canarygrass (Phalaris minor), chickweed (common chickweed, Stellaria media) windgrass (Apera spica-venti) and deadnettle (henbit deadnettle, Lamium amplexicaule) were planted in pots containing Redi-Earth® planting medium (Scotts Company, 14111 Scottslawn Road, Marysville, Ohio 43041) comprising spaghnum peat moss, vermiculite, wetting agent and starter nutrients and treated with postemergence applications of test chemicals formulated in the same manner. Plants ranged in height from 2 to 18 cm (1- to 4-leaf stage) for postemergence treatments.
Treated plants and controls were maintained in a greenhouse for 13 to 15 days, after which time all species were compared to controls and visually evaluated. Plant response ratings, summarized in Table C, are based on a scale of 0 to 100 where 0 is no effect and 100 is complete control. A dash (-) response means no test result.

[11] = Postemergence, 31 g ai/ha, scale 0 to 100 (0 no effect, 100 complete control)
[12] = Postemergence, 62 g ai/ha, scale 0 to 100 (0 no effect, 100 complete control)
[13] = Postemergence, 125 g ai/ha, scale 0 to 100, 0 no effect, 100 complete control
[14] = Postemergence, 250 g ai/ha, scale 0 to 100
[15] = Preemergence, 31 g ai/ha, scale of 0 to 100, 0 is no effect, 100 is complete control
[16] = Preemergence, 62 g ai/ha, scale of 0 to 100, 0 is no effect, 100 is complete control
[17] = Preemergence, 125 g ai/ha, scale 0 to 100, 0 no effect, 100 complete control
[18] = Preemergence, 250 g ai/ha, scale 0 to 100, 0 no effect, 100 complete control

## Cc1nn(-c2ccc(C(F)(F)F)cc2)nc1Cc1ccnc(C(F)(F)F)c1 [Compound 47, 4-[[5-methyl-2-[4-(trifluoromethyl)phenyl]-2H-1,2,3-triazol-4-yl]methyl]-2-(trifluoromethyl)pyridine]
[1]; post-emergence, Postemergence, 0 to 100 scale, 0 is no effect, 100 is complete control, read-out: Wheat plant response rating
  plant injury at 125 g/ha: 30%
[1]; post-emergence, Postemergence, visual rating on 0 to 100 scale (0 no effect, 100 complete control), approximately ten days, read-out: Wheat plant response rating
  plant injury at 500 g/ha: 50%
[1]; pre-emergence, Preemergence, 0 to 100 scale (0 no effect, 100 complete control), read-out: Plant response rating, Wheat
  plant injury at 125 g/ha: 30%
[1]; pre-emergence, Preemergence, 0 to 100 scale, 0 is no effect, 100 is complete control, read-out: Plant response rating, Wheat
  plant injury at 500 g/ha: 40%
[2]; [11]
  Plant response rating, Ryegrass, Italian: 35
[2]; [12]
  Plant response rating, Ryegrass, Italian: 65
[2]; [13]
  Plant response rating, Ryegrass, Italian: 75
[2]; [14]
  Plant response rating, Ryegrass, Italian: 85
[2]; [15]
  Plant response rating, Ryegrass, Italian: 35
[2]; [16]
  Plant response rating, Ryegrass, Italian: 50
[2]; [17]
  Plant response rating, Ryegrass, Italian: 90
[2]; [18]
  Plant response rating, Ryegrass, Italian: 98
[3]; [11]
  Plant response rating, Pigweed: 100
[3]; [12]
  Plant response rating, Pigweed: 100
[3]; [13]
  Plant response rating, Pigweed: 100
[3]; [14]
  Plant response rating, Pigweed: 100
[3]; [15]
  Plant response rating, Pigweed: 100
[3]; [16]
  Plant response rating, Pigweed: 100
[3]; [17]
  Plant response rating, Pigweed: 100
[3]; [18]
  Plant response rating, Pigweed: 100
[4]; [11]
  Plant response rating, Ragweed: 45
[4]; [12]
  Plant response rating, Ragweed: 65
[4]; [13]
  Plant response rating, Ragweed: 75
[4]; [14]
  Plant response rating, Ragweed: 95
[4]; [15]
  Plant response rating, Ragweed: 5
[4]; [16]
  Plant response rating, Ragweed: 15
[4]; [17]
  Plant response rating, Ragweed: 45
[4]; [18]
  Plant response rating, Ragweed: 80
[5]; [11]
  Plant response rating, Johnsongrass: 0
[5]; [12]
  Plant response rating, Johnsongrass: 10
[5]; [13]
  Plant response rating, Johnsongrass: 35
[5]; [14]
  Plant response rating, Johnsongrass: 50
[5]; [15]
  Plant response rating, Johnsongrass: 5
[5]; [16]
  Plant response rating, Johnsongrass: 10
[5]; [17]
  Plant response rating, Johnsongrass: 60
[5]; [18]
  Plant response rating, Johnsongrass: 95
[6]; post-emergence, Postemergence, 0 to 100 scale, 0 is no effect, 100 is complete control, read-out: Morningglory plant response rating
  pest or weed control at 125 g/ha: 90%
[6]; post-emergence, Postemergence, visual rating on 0 to 100 scale (0 no effect, 100 complete control), approximately ten days, read-out: Morningglory plant response rating
  pest or weed control at 500 g/ha: 90%
[6]; pre-emergence, Preemergence, 0 to 100 scale (0 no effect, 100 complete control), read-out: Plant response rating, Morningglory
  pest or weed control at 125 g/ha: 70%
[6]; pre-emergence, Preemergence, 0 to 100 scale, 0 is no effect, 100 is complete control, read-out: Plant response rating, Morningglory
  pest or weed control at 500 g/ha: 80%
[7]; [11]
  Plant response rating, Foxtail, Giant: 65
[7]; [12]
  Plant response rating, Foxtail, Giant: 65
[7]; [13]
  Plant response rating, Foxtail, Giant: 80
[7]; [14]
  Plant response rating, Foxtail, Giant: 98
[7]; [15]
  Plant response rating, Foxtail, Giant: 95
[7]; [16]
  Plant response rating, Foxtail, Giant: 100
[7]; [17]
  Plant response rating, Foxtail, Giant: 100
[7]; [18]
  Plant response rating, Foxtail, Giant: 100
[8]; [11]
  Plant response rating, Galium: 80
[8]; [12]
  Plant response rating, Galium: 80
[8]; [13]
  Plant response rating, Galium: 95
[8]; [14]
  Plant response rating, Galium: 98
[8]; [15]
  Plant response rating, Galium: 85
[8]; [16]
  Plant response rating, Galium: 100
[8]; [17]
  Plant response rating, Galium: 100
[8]; [18]
  Plant response rating, Galium: 100
[9]; [11]
  Plant response rating, Crabgrass, Large: 5
[9]; [12]
  Plant response rating, Crabgrass, Large: 15
[9]; [13]
  Plant response rating, Crabgrass, Large: 35
[9]; [14]
  Plant response rating, Crabgrass, Large: 50
[9]; [15]
  Plant response rating, Crabgrass, Large: 45
[9]; [16]
  Plant response rating, Crabgrass, Large: 98
[9]; [17]
  Plant response rating, Crabgrass, Large: 100
[9]; [18]
  Plant response rating, Crabgrass, Large: 100
Corn (Zea mays); post-emergence, Postemergence, 125 g ai/ha, 0 to 100 scale, 0 is no effect, 100 is complete control, read-out: Corn plant response rating
  plant injury at 125 g/ha: 20%
Corn (Zea mays); post-emergence, Postemergence, 500 g ai/ha, visual rating on 0 to 100 scale (0 no effect, 100 complete control), approximately ten days, read-out: Corn plant response rating
  plant injury at 500 g/ha: 40%
Corn (Zea mays); pre-emergence, Preemergence, 125 g ai/ha, 0 to 100 scale (0 no effect, 100 complete control)
  Corn plant response rating (crop injury, 0 = no effect, 100 = complete kill) at 125 g/ha: 20%
Corn (Zea mays); pre-emergence, Preemergence, 500 g ai/ha, 0 to 100 scale, 0 is no effect, 100 is complete control
  Corn plant response rating (crop injury, 0 = no effect, 100 = complete kill) at 500 g/ha: 30%
[10]; [11]
  Plant response rating, Velvetleaf: 65
[10]; [12]
  Plant response rating, Velvetleaf: 70
[10]; [13]
  Plant response rating, Velvetleaf: 80
[10]; [14]
  Plant response rating, Velvetleaf: 90
[10]; [15]
  Plant response rating, Velvetleaf: 45
[10]; [16]
  Plant response rating, Velvetleaf: 60
[10]; [17]
  Plant response rating, Velvetleaf: 90
[10]; [18]
  Plant response rating, Velvetleaf: 100
Kochia (Kochia scoparia); [11]
  Plant response rating, Kochia: 65
Kochia (Kochia scoparia); [15]
  Plant response rating, Kochia: 85
Kochia (Kochia scoparia); [16]
  Plant response rating, Kochia: 90
Kochia (Kochia scoparia); [17]
  Plant response rating, Kochia: 98
Kochia (Kochia scoparia); [18]
  Plant response rating, Kochia: 98
